The compounds below were run on THP-1 cells expressing G12D (NRAS G12D) (assay: Inhibition of NRAS G12D-mediated phosphorylation of ERK (AlphaLISA p-ERK1/2) in THP-1 cells). Conditions: 2 hours incubation, HBSS with 0% or 10% FBS, p-ERK1/2 (Thr202/Tyr204) AlphaLISA, read-out: pERK THP-1 IC50.
Assay type: cell-based
Procedure: Inhibition of NRAS G12D-Mediated Phosphorylation of ERK by Exemplary Compounds of Formulas I, II, and III.
This Example illustrates that exemplary compounds and salts thereof described herein inhibit the phosphorylation of ERK downstream of NRAS G12D.
THP-1 cells (ATCC TIB-202) expressing G12D were maintained in RPMI-1640 medium supplemented with 10% fetal bovine serum (FBS), 0.05 mM 2-mercaptoethanol, and penicillin/streptomycin. Cells (20,000/well) were seeded onto a 384 well plate in 20 μL of HBSS supplemented with 0% or 10% FBS. Cells were incubated in the absence or presence of various concentrations of test compound (final 1% DMSO) for 2 hours. p-ERK expression was assessed using the AlphaLISA SureFire Ultra p-ERK1/2 (Thr202/Tyr204) (PerkinElmer®, ALSU-PERK-A10K) following manufacturer recommendation. Plates were read on a PerkinElmer® Envision Multimode plate reader. Dose-response curves were analyzed using IC50 regression curve fitting (GeneData Screener). Curves were plotted as a percent control and normalized by high controls without inhibitor (100%), and low controls (0%) containing 1 μM of trametinib, a potent MEK inhibitor.
C#Cc1c(F)ccc2cc(O)cc(-c3ncc4c([C@H]5[C@@H]6CN[C@@H](C(=O)OC)[C@@H]65)nn(C)c4c3F)c12 (racemic) [Example 47, methyl rac-(2R,6S)-6-[6-(8-ethynyl-7-fluoro-3-hydroxy-1-naphthyl)-7-fluoro-1-methyl-pyrazolo[4,3-c]pyridin-3-yl]-3-azabicyclo[3.1.0]hexane-2-carboxylate] showed an IC50 of 0.116 µM.
C#Cc1c(F)ccc2cc(O)cc(-c3ncc4c([C@H]5[C@@H]6CN[C@@H](C(=O)OC)[C@@H]65)nn(C)c4c3F)c12 (racemic) [Example 48, methyl rac-(2R,6S)-6-[6-(8-ethynyl-7-fluoro-3-hydroxy-1-naphthyl)-7-fluoro-1-methyl-pyrazolo[4,3-c]pyridin-3-yl]-3-azabicyclo[3.1.0]hexane-2-carboxylate] showed an IC50 of 6.47 µM.

Same assay, conditions: Homo sapiens, THP-1, 2 h, 2 hours incubation, HBSS with 0% or 10% FBS, p-ERK1/2 (Thr202/Tyr204) AlphaLISA, read-out: pERK THP-1 IC50
Work on C#Cc1c(F)ccc2cc(O)cc(-c3nc(N(C)C)c4c(N5C[C@H]6CC[C@@H]5CN6)nn(C5CC5)c4c3F)c12 (stereo in doubt) [Example 92, 4-(3-((1R,4R)-2,5-diazabicyclo[2.2.2]octan-2-yl)-1-cyclopropyl-4-(dimethylamino)-7-fluoro-1H-pyrazolo[4,3-c]pyridin-6-yl)-5-ethynyl-6-fluoronaphthalen-2-ol] yielded an IC50 of over 10 µM.
With C#Cc1c(F)ccc2cc(O)cc(-c3ncc4c(N5C[C@@H](C)N[C@@H](C)C5)nn(C)c4c3F)c12 [Example 32, 4-[3-[(3R,5S)-3,5-dimethylpiperazin-1-yl]-7-fluoro-1-methyl-pyrazolo[4,3-c]pyridin-6-yl]-5-ethynyl-6-fluoro-naphthalen-2-ol] the IC50 was over 50 µM.
C#Cc1c(F)ccc2cc(O)cc(-c3ncc4c(N5C6CNCC5C6)nn(C)c4c3F)c12 [Example 35, 4-[3-(3,6-diazabicyclo[3.1.1]heptan-6-yl)-7-fluoro-1-methyl-pyrazolo[4,3-c]pyridin-6-yl]-5-ethynyl-6-fluoro-naphthalen-2-ol] gave an IC50 of 4.66 µM.
For C#Cc1c(F)ccc2cc(O)cc(-c3ncc4c(N5C[C@@H]6CNC[C@@H]65)nn(C5CC5)c4c3F)c12 [Example 37, 4-[1-cyclopropyl-3-[(1S,5R)-3,6-diazabicyclo[3.2.0]heptan-6-yl]-7-fluoro-pyrazolo[4,3-c]pyridin-6-yl]-5-ethynyl-6-fluoro-naphthalen-2-ol], the IC50 was 6.67 µM.
C#Cc1c(F)ccc2cc(O)cc(-c3ncc4c(C5C(=O)C6CCC5CN6)nn(C)c4c3F)c12 (centres unmarked) [Example 41, 5-[6-(8-ethynyl-7-fluoro-3-hydroxy-1-naphthyl)-7-fluoro-1-methyl-pyrazolo[4,3-c]pyridin-3-yl]-2-azabicyclo[2.2.2]octan-6-one] gave an IC50 of over 10 µM.
C#Cc1c(F)ccc2cc(O)cc(-c3ncc4c(C5CC6CCC5CN6)nn(C)c4c3F)c12 (centres unmarked) [Example 43, 4-[3-(2-azabicyclo[2.2.2]octan-5-yl)-7-fluoro-1-methyl-pyrazolo[4,3-c]pyridin-6-yl]-5-ethynyl-6-fluoro-naphthalen-2-ol] was tested, and the IC50 was over 10 µM.
C#Cc1c(F)ccc2cc(O)cc(-c3nc(CCC#N)c4c([C@H]5[C@@H]6CNC[C@@H]65)nn(C5CC5)c4c3F)c12 [Example 50, 3-[3-(3-azabicyclo[3.1.0]hexan-6-yl)-1-cyclopropyl-6-(8-ethynyl-7-fluoro-3-hydroxy-1-naphthyl)-7-fluoro-pyrazolo[4,3-c]pyridin-4-yl]propanenitrile] gave an IC50 of 0.49 µM.
With C#Cc1c(F)ccc2cc(O)cc(-c3nc(C)c4c([C@H]5[C@@H]6CNC[C@@H]65)nn(C5CC5)c4c3F)c12 [Example 51, 4-[3-(3-azabicyclo[3.1.0]hexan-6-yl)-1-cyclopropyl-7-fluoro-4-methyl-pyrazolo[4,3-c]pyridin-6-yl]-5-ethynyl-6-fluoro-naphthalen-2-ol] the IC50 was 0.25 µM.
Work on C#Cc1c(F)ccc2cc(O)cc(-c3nc(Cc4ccccc4)c4c([C@H]5[C@@H]6CNC[C@@H]65)nn(C5CC5)c4c3F)c12 [Example 52, 4-[3-(3-azabicyclo[3.1.0]hexan-6-yl)-4-benzyl-1-cyclopropyl-7-fluoro-pyrazolo[4,3-c]pyridin-6-yl]-5-ethynyl-6-fluoro-naphthalen-2-ol] yielded an IC50 of 3.89 µM.

Source: US20260022118A1, “HETEROCYCLIC COMPOUNDS AS NRAS INHIBITORS” (Board of Regents, The University of Texas System, priority 2023, published 2026)
